Data as given in patent US20060257935A1, “Hematopoietic factor production promoter” (Ajinomoto Co., Inc., priority 2005, published 2006).

Columns and labels:
[1] = tested on: porcine primary hepatocyte; details: added to medium for porcine primary hepatocyte culture at a high concentration; cited from earlier work
SCF = SCF mRNA quantification by quantitative PCR in bone marrow cells isolated from renal failure rat; type: cell-based; details: 2 hours after addition of arginine, 400 μM or 600 μM vs 100 μM
Excerpt: (§1) A renal failure rat (a rat from which ⅚ of kidney was removed) was produced as follows. A male Wistar rat at 8 weeks of age (Charles River Japan, Inc.) was subjected to the total extirpation of the right kidney and the ⅔ extirpation of the renal cortex of the left kidney under anesthesia with Nembutal and was sutured. After the surgery, the rat was housed under normal housing condition (CRF-1 diet, Charles River Japan, Inc.). Six weeks after the surgery the renal failure rat was killed by diethyl ether, then both femurs were excised and bone marrow cells were isolated. The isolated bone marrow cells were suspended in an IMDM medium with blood amino acid concentration containing 10% FCS. […]
(§2) The quantification of mRNA of each of the hematopoietic factors was determined by the quantitative PCR method mentioned below. Based on the sequences of activin (rat Inhibin betaA), SCF and IGF-1 registered in NCBI (GenBank accession Nos. M37482, NM021843, and NM178886, respectively in the order), oligonucleotide primers to be used for the quantitative PCR method were synthesized. […]
(§3) The quantitative PCR method was in accordance with the method described in SYBRGreen PCR kit (TOYOBO., Ltd.). […] After the quantitative PCR, the presence or absence and size of an amplified product were confirmed by agarose gel electrophoresis. […]

[2] = tested on: activin (rat Inhibin betaA); test: Activin mRNA quantification by quantitative PCR in bone marrow cells isolated from renal failure rat; type: cell-based; details: 2 hours after addition of arginine, 400 μM or 600 μM vs 100 μM
Excerpt: as §1, §2, §3

IGF-1 = IGF-1 mRNA quantification by quantitative PCR in bone marrow cells isolated from renal failure rat; type: cell-based; details: 2 hours after addition of arginine, 400 μM or 600 μM vs 100 μM
Excerpt: as §1, §2, §3

[3] = tested on: patients with renal anemia; details: cited from earlier work
MC3T3-E1 cells = details: cited from earlier work
normal rats = details: repeated administration; cited from earlier work
[4] = Blood arginine concentration after oral administration to rats; type: in vivo, rat; details: oral single-dose administration of arginine at 1.2 g/kg
[5] = tested on: mouse bone marrow cells (CFU-E); test: In vitro mouse CFU-E colony assay (methylcellulose semi-solid medium); type: cell-based
Method: An in vitro mouse CFU-E colony assay was conducted in accordance with the following method. After a female BDF-1 mouse at 10 weeks of age (Charles River Japan, Inc.) was killed by the cervical dislocation method, bone marrow cells were isolated from the femur and suspended in an IMDM medium (Invitrogen) containing 10% FCS (JRH Bioscience Inc). The bone marrow cells were centrifuged at 1500 rpm for 10 minutes at 4° C. and the precipitated bone marrow cells were resuspended in an amino acid-free IMDM medium and the number of cells was measured. […] At 28 hours after the culture was carried out under the condition of 37° C. and 5% CO2, the number of CFU-E colonies was measured using an inverted microscope. […] The data is expressed as a mean value±SEM. […]

## N[C@@H](Cc1c[nH]c2ccccc12)C(=O)O [triptophan]
[1]
  gene expression of IGF-1: increases

## O=C(O)[C@@H]1CCCN1 [proline]
[1]
  gene expression of IGF-1: increases

## C[C@@H](O)[C@H](N)C(=O)O [threonine]
[1]
  gene expression of IGF-1: increases

## N=C(N)NCCC[C@H](N)C(=O)O [arginine]
SCF
  production of SCF (relative mRNA level per total RNA): promotes the production
[2]
  production of activin (relative mRNA level per total RNA): promotes the production
IGF-1
  production of IGF-1 (relative mRNA level per total RNA): promotes the production
[3]
  condition of anemia (number of red blood cells): improved
MC3T3-E1 cells; MC3T3-E1 cells, arginine added at a higher concentration
  gene expression of IGF-1: increases
MC3T3-E1 cells; MC3T3-E1 osteoblast-like cell line
  secretion amount of IGF-1: increases
Normal rats
  amount of hemoglobin and red blood cells: increased
[4]
  blood arginine concentration: about 600 μM
[1]
  gene expression of IGF-1: increases
[5]; 600 μM arginine added to isolated mouse bone marrow cells, compared with 170 μM
  number of CFU-E colonies: significantly increases

B1: follistatin: follistatin (FSN, anti-activin, R&D Co.), inhibitor for activin (protein, UniProt P19883 30-344, looked up)
Follistatin: GNCWLRQAKNGRCQVLYKTELSKEECCSTGRLSTSWTEEDVNDNTLFKWMIFNGGAPNCIPCKETCENVDCGPGKKCRMNKKNKPRCVCAPDCSNITWKGPVCGLDGKTYRNECALLKARCKEQPELEVQYQGRCKKTCRDVFCPGSSTCVVDQTNNAYCVTCNRICPEPASSEQYLCGNDGVTYSSACHLRKATCLLGRSIGLAYEGKCIKAKSCEDIQCTGGKKCLWDFKVGRGRCSLCDELCPDSKSDEPVCASDNATYASECAMKEAACSSGVLLEVKHSGSCNSISEDTEEEEEDEDQDYSFPISSILEW
[5]; follistatin 100 ng/ml, 600 μM arginine, 28 hours culture
  inhibition of CFU-E-colony stimulating activity of arginine: inhibited
